According to patent publication US20210395406A1, “REVERSIBLE CROSS-LINKING SYSTEM FOR POLYVINYLAMINES” (SOLENIS TECHNOLOGIES, L.P., priority 2020, published 2021):
Converted amounts (≈) assume the structure as drawn. Where a name gives a salt, the structure may show the parent alone.

Assays:
[1] = Water solubility of cross-linkers
[2] = Reversibility of cross-linking by means of pH-change; type: physicochemical; conditions: gel of 3.9 g Example 2.1 at pH 7 crosslinked with 0.075 g OBP, after adding 2 ml hydrochloric acid (10 w %)
Experimental: 3.9 g Example 2.1 at 7 pH stained with rhodamine B were crosslinked with 0.075 g OBP dissolved in 1 mL water at RT. The cross-linking reaction produces within a few seconds a solid gel. After adding 2 ml of hydrochloric acid (10 w %) it takes about 2 h till the gel is completely liquefied. When setting the pH back to neutral by adding caustic the gel is instantaneously formed again.

[3] = Oscillatory shear rheology of PVAm hydrogels cross-linked with OBP; type: physicochemical
Experimental: To investigate the mechanical properties of the hydrogel and to confirm the formation of cross-linking points from a mechanical point of view, dynamic rheological measurements were performed. Hydrogel samples with a varying degree of cross-linking (DC=n(OBP)/n(Am) [mol %]) in the range of 1-5 mol % and a water content of 94 wt % were analyzed under oscillatory shear. […] All samples show an elastic response over the entire frequency range, with G′ distinctly exceeding G″ by two magnitudes. Additionally, a frequency independent behavior for G′ is observed.
Rheological properties of the hydrogels were analyzed via oscillatory shear experiments on the strain-controlled rotational rheometer Ares G2 (TA Instruments, Eschborn, Germany). Hydrogel samples with a varying degree of cross-linking (DC) between 1 and 5 mol % (DC=n(OBP)/n(Am) [mol %]) were prepared in a cylindrical PTFE mold with a diameter of ˜30 mm to obtain uniform disc-shaped specimens. The cross-linking agent (OBP) was first dissolved in 1 ml H2O and then mixed with 3 ml of the 6.6 wt % PVAm solution. The mold was sealed and the cross-linking reaction was allowed to proceed overnight.
The test geometry was a 30 mm diameter plate made from aluminum. The geometry was lowered until a constant axial force of 0.5 N was applied to the sample and the temperature was controlled to 25±0.1° C. by a Peltier element (Advanced Peltier System, TA Instruments). First, an oscillatory strain sweep was performed with a constant frequency of f=1 Hz by varying the strain from γ0=0.01-1000% to determine the linear viscoelastic (LVE) regime. The values at a strain of γ0=0.1% were chosen to be representative for the LVE regime. Subsequently, frequency sweeps were employed at a fixed strain of 0.1% while the frequency was varied from 0.03 to 100 Hz. To study the self-healing properties, the sample with DC=3 mol % was cut and subsequently cured in a sealed mold at 70° C. for 3 h.

Row | SMILES | solubility [1] | time till the gel is completely liquefied [2] | mechanical strength ([3]; PVAm hydrogels cross-linked with OBP, at higher DC values, water content 94 wt %) | storage modulus ([3]; PVAm/OBP hydrogel DC=3 mol %, after first self-healing cycle) | storage modulus ([3]; PVAm/OBP hydrogel DC=3 mol %, before first self-healing cycle) | decrease of G′ ([3]; PVAm/OBP hydrogel DC=3 mol %, cut and measured directly without curing) | decrease of the storage modulus ([3]; PVAm/OBP hydrogel DC=3 mol %, first self-healing cycle, cut and cured at 70° C. for 3 h) | melting point
1 | O=C1CCN(C(=O)C(=O)N2CCC(=O)CC2)CC1 [Example 1.1, 1,2-bis(4-oxopiperidin-1-yl)ethane-1,2-dione] | 60 mg/mL (≈ 238 mM) | about 2 h | up to 15 kPa | ~6 kPa | approximately 7 kPa | 42% | 14% | –
2 | O=C1CCN(C(=O)c2ccc(C(=O)N3CCC(=O)CC3)cc2)CC1 [Example 1.2, 1,1′-Terephthaloylbis(piperidin-4-one)] | 0.5 mg/mL (≈ 1.52 mM) | – | – | – | – | – | – | –
3 | O=C1CCN(C(=O)C(=O)N2CCC(=O)CC2)CC1 (as salt: hydrochloride) (hydrate or solvate) [Example 1.1, 1,2-bis(4-oxopiperidin-1-yl)ethane-1,2-dione] | – | – | – | – | – | – | – | 174 °C
